Reference: patent US10399924B2, “Deuterium substituted fumarate derivatives” (Biogen MA Inc., priority 2012, dated 2019)
Where a name gives a salt, the structure may show the parent alone. Read-outs that look alike come from different tables or passages of the source.

Key:
Nrf2-Keap1 Pathway = assay: DiscoverRx PathHunter Nrf2-Keap1 nuclear translocation biosensor assay; format: cell-based; conditions: agonist mode, 6 hours incubation at room temperature; read-out: Nrf2 activation EC50
Source text: The PathHunter® Nuclear Translocation assay detects translocation of a target protein to, or from, the nucleus. In this system, Prolink™ (PK), a small enzyme fragment, is fused to the protein of interest and Enzyme Acceptor (EA) is localized in the nucleus. Activation of the signaling pathway induces the target protein to either transit into the nucleus, thus forcing complementation of the PK and EA fragments, or out of the nucleus, hindering complementation of the fragments. PathHunter Pathway cell lines were expanded from freezer stocks according to standard procedures. 5000 cells were seeded in Cell Plating Reagent 0 (containing 1% FBS) to a total volume of 20 μL into white walled, 384-well microplates and incubated for the overnight prior to testing. For Agonist determination, cells were incubated with sample to induce response. Dilution of sample stocks was performed to generate 100× sample in DMSO. […] Vehicle concentration was 1%. Assay signal was generated through a single addition of 25 μL (100% v/v) of PathHunter Flash Detection reagent, followed by a one hour incubation at room temperature. Microplates were read following signal generation with a PerkinElmer Envision™ instrument for chemiluminescent signal detection. Compound activity was analyzed using CBIS data analysis suite (ChemInnovation, CA). For agonist mode assays, percentage activity was calculated using the following formula: % Activity=100%×(mean RLU of test sample−mean RLU of vehicle control)/(mean MAX RLU control ligand−mean RLU of vehicle control).

[1] = test system: Nrf2 (ARE-luciferase reporter), DLD-1/ARE-E2; assay: ARE-luciferase reporter assay of Nrf2 activation, DLD-1/ARE-E2 cells; format: cell-based, human; conditions: summary for DLD-1 and MCF-7 reporter cell lines
Experimental: Human cancer cell line DLD-1 and breast cancer cell line MCF7 reporter stable cell lines were generated by transfection with a firefly luciferase reporter construct harboring the luciferase cDNA cloned downstream of eight catenated copies of the antioxidant response element ([…] ID NO.:1). See Wang et al. Cancer Res. 2006; 66:10983-94. To measure Nrf2 activation in the ARE-luciferase reporter cell lines, the cells were plated in 96-well plates at 20-50 k cells/well 24 hours prior to stimulation with the test compounds. […] The reporter cells were harvested 24 hours-48 hours after addition of the compounds and lysed for detection of luciferase activity. Luciferase activity in the lysates was monitored using the Bright-Glo Luciferase Assay System of Promega and Tecan Genios Pro plate reader. Luciferase induction in the compound-treated cells was calculated as fold change over the baseline activity detected in control cultures treated with DMSO-containing media.

[2] = Oral cassette co-administration PK with DMF in male SD rats (plasma, LC/MS/MS); conditions: equivalent oral dose of 50 mg/kg of DMF, same study
[3] = Oral PK at 100 mg/kg in male SD rats; conditions: in vivo, rat, read-out: half-life of MMF (converted)
Experimental: The concentration of the compounds was determined by LC/MS/MS. […] The concentration of D-MMF was determined by LC/MS/MS. […] The concentration of D-MMF was determined by LC/MS/MS.

EC50 (Nrf2-Keap1 Pathway) [µM] | oral exposure compared to DMF [2] | half-life ([3]; male, SD, 100 mg/Kg oral dose) [min] | half-life ([3]; oral, 100 mg/Kg, species not stated for this figure) [min] | SMILES | activation of ARE-dependent signaling of the luciferase reporter construct [1]
6.57 | higher oral exposure | – | – | O=C(O)/C=C/C(=O)O.[2H]C([2H])([2H])OC(=O)/C=C/C(=O)OC([2H])([2H])[2H] [Example 1, (^2H6)dimethyl Fumaric Acid Ester] | able to activate ARE-dependent signaling
7.97 | higher oral exposure | – | – | [2H]/C(C(=O)O)=C(/[2H])C(=O)O.[2H]/C(C(=O)OC([2H])([2H])[2H])=C(/[2H])C(=O)OC([2H])([2H])[2H] [Example 8] | –

Further lines, the compound ahead of its results:

SMILES | EC50 (Nrf2-Keap1 Pathway) [µM] | oral exposure compared to DMF [2] | half-life ([3]; male, SD, 100 mg/Kg oral dose) [min] | half-life ([3]; oral, 100 mg/Kg, species not stated for this figure) [min] | activation of ARE-dependent signaling of the luciferase reporter construct [1]
COC(=O)/C=C/C(=O)OC [DMF, dimethyl fumarate, reference compound] | 5.4 | – | – | – | –
O=C(O)/C=C/C(=O)O.[2H]C([2H])([2H])OC(=O)/C=C/C(=O)O [Example 2, (^2H3)methyl Fumaric Acid Ester] | – | – | – | – | able to activate ARE-dependent signaling
[2H]/C(C(=O)OC)=C(/[2H])C(=O)OC [Example 4] | 4.78 | higher oral exposure | – | – | –
COC(=O)/C=C/C(=O)O [MMF, monomethyl fumarate] | – | – | 54 | ~60 | –
